Data set [1] relates to primary neuronal cultures from cortex. Put plainly: NMDA neurotoxicity in cerebral cortical cultures (trypan blue, % cell death). It counts as cell-based, Sprague-Dawley rats. The settings on record: for protection against NMDA neurotoxicity (in words): 10 μM 1,5-dihydroxyisoquinoline, 1 mM novobiocin, Table 1A and summary statements. How it is done:
To determine directly if PARS activation participates in NMDA neurotoxicity, we monitored neurotoxicity elicited by NMDA in cerebral cortical cultures in which NO synthase inhibitors provide marked protection (V. L. Dawson et al., Proc. Natl. Acad. Sci. U.S.A. 88, 6368 (1991); V. L. Dawson et al., J. Neurosci. 13, 2651 (1993)) (FIG. 2).
Table 1A, PARS inhibitors were applied 30 min before and during NMDA application. In Table 1B, PARS inhibitors were applied after NMDA administration at the indicated times for 20 to 24 hr. Data are the means ±SEM (n≥8). Each data point represents 4,000-12,000 neurons counted. *p≤0.001 Student's t-test.
(§1) Primary neuronal cultures from cortex were prepared from fetal Sprague-Dawley rats, gestation day 13-14. Mature neurons (grater than 21 days in culture) were used in all experiments.
(§2) Neurotoxicity was determined by exposing the neurons to the various test solutions as previously described (Dawson, supra). […], SNP or SNAP were applied to the cells for 5 min, then the cells were washed and replaced with MEM, 21 mM glucose overnight in the incubator. Twenty to 24 hr after exposure to test solutions, the neurons were exposed to 0.4% trypan blue in CSS to stain the residue of non-viable cells and to assess toxicity. Viable and non-viable cells were counted. At least two separate experiments utilizing four separate wells were performed for each data point shown. Significant overall values were obtained by using a one-way, between groups analysis of variance. Specific comparisons on all possible pair combinations were made with the Student's t-test for independent means.

Data set [2] addresses PARS (poly(ADP-ribose) synthetase) (Rattus norvegicus, UniProt P27008). The data set is described as follows: PARS activity in rat brain nuclear extracts. In kind it is biochemical. The conditions noted are these: for activity at 20 µM: read-out: PARS activity, % of basal levels. The text has this: Inhibitors of poly(ADP-ribose) synthetase are compounds which compete for the substrate binding site of poly(ADP-ribose) synthetase or other sites on the enzyme, and include both reversible and irreversible inhibitors. The present invention contemplates the use of any physiologically acceptable inhibitor which inhibits poly(ADP-ribose) synthetase activity. The effectiveness of a compound, and its relative potency as a poly(ADP-ribose) synthetase inhibitor, can be tested and routinely determined by measuring inhibition of poly(ADP-ribose) synthetase activity. Poly(ADP-ribose) synthetase activity can be assayed according to the method of Schranfstatter, et al., J. Clin. Inves. 77, 1312 (1986).
Whole brains from 1-day old rats were homogenized in 20% (w/v) buffer A [50 mM Tris-HCl (pH 7.4), 1 mM EDTA, 1 mM DTT, 50 mM NaCl, 0.25M sucrose, 0.2 mM phenylmethylsulfonyl fluoride, 1 μg/ml each of chymostatin, leupeptin, pepstatin and trypsin inhibitor]. The homogenate was centrifuged at 1000 g for 15 min. The pellet was washed with buffer A and centrifuged again. The washed pellet, termed nuclear fraction, was resuspended in buffer A. PARS activity was assayed according to I. U. Schranfstatter, et al., J. Clin. Inves. 77, 1312 (1986). Each 50 μl assay mixture contained 10 μg of the nuclear protein fraction and [adenylate-^32 P]

For the next data set, the system named is PARS. The settings on record: cited from earlier work; for relative potency as PARS inhibitor (in words): family of benzamide and its derivatives.
Another data set has as its system pancreatic islet cells. The settings on record: Kallman et al. 1992; cited from earlier work.
The next data set has as its system brain NOS. Put plainly: Nitrite formation in human kidney 293 cells stably transfected with brain NOS cDNA. In kind it is cell-based. The conditions noted are these: for nitrite formation: A23187 (10 μM), 2 hr, inhibitors 100 μM, n=3. The text has this: (§3) To ascertain whether NO itself elicits neurotoxicity by activation of PARS, we administered the NO releasers SNP and S-nitroso-N-acetylpenicillamine (SNAP). […] In human kidney 293 cells stably transfected with the cDNA of brain.

In data set [3] the test system is primary neuronal cultures from cortex. Put plainly: SNP and SNAP (NO releaser) neurotoxicity in cortical neuronal cultures. It counts as cell-based, Sprague-Dawley rats. The settings on record: for inhibition at 100 µM: Rattus norvegicus, Primary cortical neuron. How it is done:
as §1, §2, §3

Data set [4] in a line: Direct interaction of benzamide with SNP/NO (HPLC recovery). In kind it is physicochemical.
Where [5] appears, read: Table 1A, 500 μM NMDA + 100 μM compound, 30 min before and during NMDA.
[6] abbreviates: Table 1A, 500 μM NMDA + 1 mM compound, 30 min before and during NMDA.

Entries after “also recorded” stand apart in the source; their conditions may differ. Read-outs that look alike come from different tables or passages of the source. Bounds are passed on as bounds.

PARS (poly(ADP-ribose) synthetase), sequence (P27008 whole entry): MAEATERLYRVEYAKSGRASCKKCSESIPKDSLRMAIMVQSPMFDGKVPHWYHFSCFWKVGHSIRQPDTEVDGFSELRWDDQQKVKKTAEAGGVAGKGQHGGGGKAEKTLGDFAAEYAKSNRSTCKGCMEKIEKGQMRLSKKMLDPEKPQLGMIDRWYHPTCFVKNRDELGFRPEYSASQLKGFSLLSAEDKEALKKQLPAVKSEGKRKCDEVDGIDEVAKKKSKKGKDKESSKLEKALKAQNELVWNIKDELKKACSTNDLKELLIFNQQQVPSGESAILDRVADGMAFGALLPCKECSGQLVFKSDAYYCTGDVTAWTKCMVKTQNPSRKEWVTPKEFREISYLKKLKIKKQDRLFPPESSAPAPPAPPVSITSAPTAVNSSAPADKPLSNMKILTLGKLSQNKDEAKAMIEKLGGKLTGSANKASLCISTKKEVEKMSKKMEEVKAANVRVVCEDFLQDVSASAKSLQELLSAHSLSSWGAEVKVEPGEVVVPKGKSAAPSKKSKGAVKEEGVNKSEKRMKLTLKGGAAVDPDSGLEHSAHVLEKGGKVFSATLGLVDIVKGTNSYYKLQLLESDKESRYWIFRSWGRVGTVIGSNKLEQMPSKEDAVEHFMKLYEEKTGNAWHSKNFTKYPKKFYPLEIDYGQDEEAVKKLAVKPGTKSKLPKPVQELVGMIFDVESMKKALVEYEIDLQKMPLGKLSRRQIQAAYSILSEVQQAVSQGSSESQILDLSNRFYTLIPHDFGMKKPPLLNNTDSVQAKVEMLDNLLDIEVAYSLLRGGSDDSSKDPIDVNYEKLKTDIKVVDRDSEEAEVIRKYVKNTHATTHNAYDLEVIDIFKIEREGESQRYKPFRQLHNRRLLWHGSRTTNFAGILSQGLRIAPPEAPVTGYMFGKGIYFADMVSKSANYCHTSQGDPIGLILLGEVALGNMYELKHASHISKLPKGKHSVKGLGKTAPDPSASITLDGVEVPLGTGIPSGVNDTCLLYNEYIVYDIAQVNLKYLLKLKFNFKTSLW

Turning to `Oc1cccc2c(O)nccc12` [1,5-dihydroxyisoquinoline], the “protection against NMDA neurotoxicity (in words)” value (“protection … (in words)” for short) is “neuroprotective” in data set [1] and “found to prevent neurotoxicity” in data set [1] (listed as 1,5-dihydroxy-isoquinoline). The “% Cell Death (± S.E.M.)” value in data set [1] (Table 1A, 500 μM NMDA + 10 μM compound, 30 min before and during NMDA) was 39.0 ± 4.5%. Further, the activity at 20 µM in data set [2] (inhibitor 20 μM, NO-treated DNA, FIG. 1A) is under 5%.

Consider `NC(=O)c1cccc(N)c1` [3-aminobenzamide], for which, in the data set on PARS (relative to benzamide), the “relative potency as PARS inhibitor (in words)” value is listed as “about half as potent”. In addition, the “protection of pancreatic islet cells from macrophage cytotoxicity” value in the data set on pancreatic islet cells is given as “protects pancreatic islet cells from macrophage cytotoxicity”. Besides, the “protection … (in words)” value in data set [1] is on record as “found to have the ability to prevent neurotoxicity; also recorded: somewhat less protection”. For the same molecule, the “% Cell Death (± S.E.M.)” value in data set [1] (setting [5]) came out at 45.9 ± 5.1%.

In the case of `Nc1ccc2c3c(cccc13)C(=O)NC2=O` [4-amino-1,8-naphthalimide], the activity at 20 µM in data set [2] is under 5%.

Turning to `NC(=O)c1ccc(N)cc1` [4-aminobenzamide], the “fold weaker than benzamide as PARS inhibitor” value in the data set with PARS (relative to benzamide) is 50-100 fold. The “% Cell Death (± S.E.M.)” value in data set [1] (setting [5]) is 55.8 ± 7.6%.

Molecule `CNc1ccc2oc(C[C@H]3O[C@@]4(CC[C@H]3C)O[C@H]([C@H](C)C(=O)c3ccc[nH]3)[C@H](C)C[C@H]4C)nc2c1C(=O)O` [A23187] yielded a nitrite formation in the data set with brain NOS of 17.1±2.1 μM nitrite.

Consider `O=C(O)c1ccccc1` [Benzoic acid], for which, in the data set with PARS (relative to benzamide), the “relative potency as PARS inhibitor (in words)” value is “inactive”. In addition, the “protection … (in words)” value is “found not to have any activity” in data set [1] and “inactive” in data set [1] (listed as benzoic acid). Moreover, the “% Cell Death (± S.E.M.)” value in data set [1] (setting [6]) was determined as 58.9 ± 5.7%.

With `CN[C@H](CC(=O)O)C(=O)O` [NMDA, N-methyl- D-aspartate], the “% Cell Death (± S.E.M.)” value in data set [1] (Table 1A, 500 μM NMDA alone) is listed as 57.1 ± 4.7%; in data set [1] (Table 1B, 500 μM NMDA alone) it was 74.7 ± 7.8%.

Regarding `[NH-]c1c[n+](N2CCOCC2)no1` [SIN-1, 3-morpholinosyndnonimine], the “effect on PARS activity by itself” value in data set [2] (SNP 1 mM, SIN-1 1 mM or untreated DNA, alone) is recorded as “no effects on PARS”.

On to `NC(=O)c1ccccc1` [benzamide], for which the IC50 in the data set on PARS (in vitro, Banasik et al. 1992, read-out: IC50 for inhibiting PARS in vitro) was 22 µM. Further, the “protection … (in words)” value is listed as “found to prevent neurotoxicity” in data set [1] and “greatest degree of protection” in data set [1] (listed as Benzamide). The “protection against NMDA neurotoxicity” value in data set [1] (50 μM) is reported as “no significant protection was detected”. In addition, the “reduction of NMDA mediated neurotoxicity” value in data set [1] (100 μM, FIG. 2 legend) is on record as “reduces”. In addition, the “greater protection than at 100 μM” value in data set [1] (500 μM versus 100 μM) was “about 30%”. Further, the inhibition at 100 µM was 40 to 50% in data set [1] (Rattus norvegicus, Primary cortical neuron, read-out: protection against NMDA neurotoxicity); 45 to 50% in data set [3] (SNAP, read-out: reduction of SNAP neurotoxicity); 45 to 50% in data set [3] (SNP, read-out: reduction of SNP neurotoxicity). Besides, the “% Cell Death (± S.E.M.)” value in data set [1] (Table 1A, 500 μM NMDA + 50 μM compound, 30 min before and during NMDA) was 60.1 ± 12.1%; in data set [1] (setting [5]), 39.5 ± 5.0%; in data set [1] (Table 1A, 500 μM NMDA + 500 μM compound, 30 min before and during NMDA), 21.9 ± 4.1%; in data set [1] (Table 1B, 100 μM compound applied 5 min after 500 μM NMDA), 35.6 ± 8.7%; in data set [1] (Table 1B, 100 μM compound applied 30 min after 500 μM NMDA), 40.4 ± 5.6%; in data set [1] (Table 1B, 100 μM compound applied 1 hour after 500 μM NMDA), 43.4%. Besides, the “reduction of SNAP mediated neurotoxicity” value in data set [3] (100 μM, SNAP (300 μM), FIG. 2 legend) was “reduces”. For the same molecule, in data set [3] (100 μM, SNP (500 μM), FIG. 2 legend), the “reduction of SNP mediated neurotoxicity” value was “reduces”. Besides, the “interaction with NO” value in data set [4] is “did not interact; also recorded: did not interact with NO”. Also, the “recovery of benzamide after incubation with SNP” value in data set [4] (benzamide 1 mM, SNP 1 mM, five days, 25° C., HPLC C18, 7200 min) amounted to 100%.

As for `CO[C@@H]1[C@@H](OC(N)=O)[C@@H](O)[C@H](Oc2ccc3c(O)c(NC(=O)c4ccc(O)c(CC=C(C)C)c4)c(=O)oc3c2C)OC1(C)C` [novobiocin], in data set [1], the “protection … (in words)” value is given as “found not to have any activity in preventing neurotoxicity; also recorded: ineffective”. Besides, the “% Cell Death (± S.E.M.)” value in data set [1] (setting [6]) turned out to be 62.4 ± 8.9%.

Turning to nitroarginine, in the data set on brain NOS (100 μM), the “effect on NOS / stimulated nitrite levels” value is “abolished”. In addition, in the data set with brain NOS, the nitrite formation is 3.9±1.6 μM nitrite.

Source of the values: USRE36397E, “Inhibitors of poly(ADP-ribose) synthetase and use thereof to treat NMDA neurotoxicity” (The John Hopkins University, priority 1998, dated 1999).
